Experimental data published in ChEMBL document CHEMBL1201862, “PubChem BioAssay data set” (2004).
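Dose response: 5 concentrations. Exposure: 48 h. Format: 96-well plates. Endpoint: linear interpolation; highest concentration if not reached. At the GI50, growth is halved.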 The source made the active and inactive calls. No stated cut-off is given here; in the data, active = GI50 up to about 1.1 µM and inactive = higher.

Columns and labels:
Assay in all cases: inhibition of tumour cell growth, NCI panel, 48 h
A498 = test system: A498
BT-549 = test system: BT-549
CAKI-1 = test system: CAKI-1
CCRF-CEM = test system: CCRF-CEM
COLO 205 = test system: COLO 205
DU-145 = test system: DU-145
HCC 2998 = test system: HCC 2998
HCT-116 = test system: HCT-116
HCT-15 = test system: HCT-15
HL-60 = test system: HL-60
HOP-62 = test system: HOP-62
HOP-92 = test system: HOP-92
HT-29 = test system: HT-29
Hs-578T = test system: Hs-578T
IGROV-1 = test system: IGROV-1
K562 = test system: K562
KM12 = test system: KM12
LOX IMVI = test system: LOX IMVI
M14 = test system: M14
MCF7 = test system: MCF7
MDA-MB-231 = test system: MDA-MB-231
MDA-MB-435 = test system: MDA-MB-435
MDA-N = test system: MDA-N
MOLT-4 = test system: MOLT-4
Malme-3M = test system: Malme-3M
NCI-H226 = test system: NCI-H226
NCI-H23 = test system: NCI-H23
NCI-H460 = test system: NCI-H460
NCI/ADR-RES = test system: NCI/ADR-RES
OVCAR-3 = test system: OVCAR-3
OVCAR-4 = test system: OVCAR-4
OVCAR-5 = test system: OVCAR-5
OVCAR-8 = test system: OVCAR-8
PC-3 = test system: PC-3
RPMI-8226 = test system: RPMI-8226
RXF 393 = test system: RXF 393
SF-295 = test system: SF-295
SK-MEL-28 = test system: SK-MEL-28
SK-MEL-2 = test system: SK-MEL-2
SK-MEL-5 = test system: SK-MEL-5
SK-OV-3 = test system: SK-OV-3
SN12C = test system: SN12C
SNB-19 = test system: SNB-19
SNB-75 = test system: SNB-75
SW-620 = test system: SW-620
T47D = test system: T47D
TK-10 = test system: TK-10
U-251 = test system: U-251
UACC-257 = test system: UACC-257
UACC-62 = test system: UACC-62
UO-31 = test system: UO-31
786-0 = test system: 786-0
A549 = test system: A549
EKVX = test system: EKVX
SF-268 = test system: SF-268
SF-539 = test system: SF-539
ACHN = test system: ACHN
NCI-H522 = test system: NCI-H522

In the case of `CC1(O)C2(c3ccccc3)CCC[N+]1(C)CC2` (stereo not given), the GI50 (A498) is reported as > 100 µM (inactive), the GI50 (BT-549) is reported as > 100 µM (inactive) and the GI50 (CAKI-1) is reported as > 100 µM (inactive). The GI50 (CCRF-CEM) was > 100 µM (inactive), the GI50 (COLO 205) was > 100 µM (inactive) and the GI50 (DU-145) was > 100 µM (inactive). The GI50 (HCC 2998) was > 100 µM (inactive), the GI50 (HCT-116) was > 100 µM (inactive) and the GI50 (HCT-15) was over 100 µM. For the same molecule, the GI50 (HL-60) was > 100 µM (inactive), the GI50 (HOP-62) was > 100 µM (inactive) and the GI50 (HOP-92) was > 100 µM (inactive). The GI50 (HT-29) was > 100 µM (inactive), the GI50 (Hs-578T) was > 100 µM (inactive) and the GI50 (IGROV-1) was > 100 µM (inactive). For the same molecule, the GI50 (K562) was > 100 µM (inactive), the GI50 (KM12) was > 100 µM (inactive) and the GI50 (LOX IMVI) was > 100 µM (inactive). For the same molecule, the GI50 (M14) was > 100 µM (inactive), the GI50 (MCF7) was > 100 µM (inactive) and the GI50 (MDA-MB-231) was > 100 µM (inactive). For the same molecule, the GI50 (MDA-MB-435) was > 100 µM (inactive), the GI50 (MDA-N) was > 100 µM (inactive) and the GI50 (MOLT-4) was > 100 µM (inactive). The GI50 (Malme-3M) was > 100 µM (inactive), the GI50 (NCI-H226) was > 100 µM (inactive) and the GI50 (NCI-H23) was > 100 µM (inactive). The GI50 (NCI-H460) was > 100 µM (inactive), the GI50 (NCI/ADR-RES) was > 100 µM (inactive) and the GI50 (OVCAR-3) was > 100 µM (inactive). The GI50 (OVCAR-4) was > 100 µM (inactive), the GI50 (OVCAR-5) was > 100 µM (inactive) and the GI50 (OVCAR-8) was > 100 µM (inactive). For the same molecule, the GI50 (PC-3) was > 100 µM (inactive), the GI50 (RPMI-8226) was > 100 µM (inactive) and the GI50 (RXF 393) was > 100 µM (inactive). The GI50 (SF-295) was > 100 µM (inactive), the GI50 (SK-MEL-28) was > 100 µM (inactive) and the GI50 (SK-MEL-2) was > 100 µM (inactive). The GI50 (SK-MEL-5) was > 100 µM (inactive), the GI50 (SK-OV-3) was > 100 µM (inactive) and the GI50 (SN12C) was > 100 µM (inactive). The GI50 (SNB-19) was > 100 µM (inactive), the GI50 (SNB-75) was > 100 µM (inactive) and the GI50 (SW-620) was > 100 µM (inactive). For the same molecule, the GI50 (T47D) was > 100 µM (inactive), the GI50 (TK-10) was > 100 µM (inactive) and the GI50 (U-251) was > 100 µM (inactive). The GI50 (UACC-257) was > 100 µM (inactive), the GI50 (UACC-62) was > 100 µM (inactive) and the GI50 (UO-31) was > 100 µM (inactive).

`CC(C)CCCC(C)[C@H]1CC[C@H]2[C@@H]3CC[C@H]4C[C@@H](CCC=C(c5cc(Cl)c(O)c(C(=O)OC(C)C)c5)c5cc(Cl)c(O)c(C(=O)OC(C)C)c5)CC[C@]4(C)[C@H]3CC[C@]12C` (stereo not given in full) was tested, and the GI50 (786-0) was > 50 µM (inactive), the GI50 (A498) was > 50 µM (inactive) and the GI50 (A549) was > 50 µM (inactive). For the same molecule, the GI50 (BT-549) was > 50 µM (inactive), the GI50 (CAKI-1) was > 50 µM (inactive) and the GI50 (CCRF-CEM) was > 50 µM (inactive). For the same molecule, the GI50 (COLO 205) was > 50 µM (inactive), the GI50 (DU-145) was > 50 µM (inactive) and the GI50 (EKVX) was > 50 µM (inactive). For the same molecule, the GI50 (HCC 2998) was > 50 µM (inactive), the GI50 (HCT-116) was > 50 µM (inactive) and the GI50 (HCT-15) was over 50 µM. For the same molecule, the GI50 (HL-60) was > 50 µM (inactive), the GI50 (HOP-62) was > 50 µM (inactive) and the GI50 (HOP-92) was > 50 µM (inactive). For the same molecule, the GI50 (HT-29) was > 50 µM (inactive), the GI50 (Hs-578T) was > 50 µM (inactive) and the GI50 (IGROV-1) was > 50 µM (inactive). The GI50 (K562) was > 50 µM (inactive), the GI50 (KM12) was > 50 µM (inactive) and the GI50 (LOX IMVI) was > 50 µM (inactive). For the same molecule, the GI50 (M14) was > 50 µM (inactive), the GI50 (MCF7) was > 50 µM (inactive) and the GI50 (MDA-MB-231) was > 50 µM (inactive). The GI50 (MDA-MB-435) was > 50 µM (inactive), the GI50 (MDA-N) was > 50 µM (inactive) and the GI50 (MOLT-4) was > 50 µM (inactive). The GI50 (NCI-H23) was > 50 µM (inactive), the GI50 (NCI/ADR-RES) was > 50 µM (inactive) and the GI50 (OVCAR-3) was > 50 µM (inactive). The GI50 (OVCAR-4) was > 50 µM (inactive), the GI50 (OVCAR-5) was > 50 µM (inactive) and the GI50 (OVCAR-8) was > 50 µM (inactive). The GI50 (PC-3) was > 50 µM (inactive), the GI50 (RPMI-8226) was > 50 µM (inactive) and the GI50 (RXF 393) was > 50 µM (inactive). The GI50 (SF-268) was > 50 µM (inactive), the GI50 (SF-295) was > 50 µM (inactive) and the GI50 (SF-539) was > 50 µM (inactive). For the same molecule, the GI50 (SK-MEL-28) was > 50 µM (inactive), the GI50 (SK-MEL-2) was > 50 µM (inactive) and the GI50 (SK-MEL-5) was > 50 µM (inactive). For the same molecule, the GI50 (SK-OV-3) was > 50 µM (inactive), the GI50 (SN12C) was > 50 µM (inactive) and the GI50 (SNB-19) was > 50 µM (inactive). The GI50 (SNB-75) was > 50 µM (inactive), the GI50 (SW-620) was > 50 µM (inactive) and the GI50 (T47D) was > 50 µM (inactive). The GI50 (U-251) was > 50 µM (inactive) and the GI50 (UACC-62) was > 50 µM (inactive).

With `O=C(c1ccc(Cl)c(Cl)c1)N(C(=S)OC12CC3CC(CC(C3)C1)C2)c1ccccc1` the GI50 (786-0) was 30.3 µM (inactive), the GI50 (A498) was 37.1 µM (inactive) and the GI50 (A549) was 32.2 µM (inactive). The GI50 (ACHN) was 34.8 µM (inactive), the GI50 (BT-549) was 36 µM (inactive) and the GI50 (CAKI-1) was 29.9 µM (inactive). For the same molecule, the GI50 (CCRF-CEM) was 2.8 µM (inactive), the GI50 (COLO 205) was 15.9 µM (inactive) and the GI50 (DU-145) was 83.2 µM (inactive). The GI50 (EKVX) was 20.8 µM (inactive), the GI50 (HCC 2998) was 43.3 µM (inactive) and the GI50 (HCT-116) was 24.8 µM (inactive). For the same molecule, the GI50 (HCT-15) was 33.3 µM, the GI50 (HL-60) was 15.8 µM (inactive) and the GI50 (HOP-62) was 44.6 µM (inactive). For the same molecule, the GI50 (HOP-92) was 31.8 µM (inactive), the GI50 (HT-29) was 29.6 µM (inactive) and the GI50 (Hs-578T) was 41.3 µM (inactive). For the same molecule, the GI50 (K562) was 17.1 µM (inactive), the GI50 (KM12) was 33.7 µM (inactive) and the GI50 (M14) was 20.8 µM (inactive). For the same molecule, the GI50 (MCF7) was 28 µM (inactive), the GI50 (MDA-MB-231) was 38.3 µM (inactive) and the GI50 (MDA-MB-435) was 30.2 µM (inactive). For the same molecule, the GI50 (MDA-N) was 32.7 µM (inactive), the GI50 (Malme-3M) was 34.9 µM (inactive) and the GI50 (NCI-H226) was 31.2 µM (inactive). The GI50 (NCI-H23) was 28.9 µM (inactive), the GI50 (NCI-H460) was 37.8 µM (inactive) and the GI50 (NCI-H522) was 13.2 µM (inactive). For the same molecule, the GI50 (NCI/ADR-RES) was 30.1 µM (inactive), the GI50 (OVCAR-3) was 39.4 µM (inactive) and the GI50 (OVCAR-4) was 38.2 µM (inactive). The GI50 (OVCAR-5) was 18.7 µM (inactive), the GI50 (OVCAR-8) was 41.5 µM (inactive) and the GI50 (PC-3) was 39.9 µM (inactive). The GI50 (RXF 393) was > 100 µM (inactive), the GI50 (SF-268) was 40.4 µM (inactive) and the GI50 (SF-295) was 36.1 µM (inactive). For the same molecule, the GI50 (SF-539) was 36.6 µM (inactive), the GI50 (SK-MEL-28) was 44.6 µM (inactive) and the GI50 (SK-MEL-2) was 20 µM (inactive). For the same molecule, the GI50 (SK-MEL-5) was 19.5 µM (inactive), the GI50 (SK-OV-3) was 36.6 µM (inactive) and the GI50 (SN12C) was 26.9 µM (inactive). For the same molecule, the GI50 (SNB-19) was 33.3 µM (inactive), the GI50 (SNB-75) was 93.1 µM (inactive) and the GI50 (SW-620) was 35.2 µM (inactive). The GI50 (T47D) was 54.6 µM (inactive), the GI50 (TK-10) was 66.8 µM (inactive) and the GI50 (U-251) was 34.6 µM (inactive). For the same molecule, the GI50 (UACC-257) was 41.2 µM (inactive), the GI50 (UACC-62) was 25.1 µM (inactive) and the GI50 (UO-31) was 21.1 µM (inactive).
